Experimental data as given in US20240336624A1, “PARP INHIBITOR CONTAINING PIPERAZINE STRUCTURE, PREPARATION METHOD THEREFOR AND PHARMACEUTICAL USE THEREOF” (WIGEN BIOMEDICINE TECHNOLOGY (SHANGHAI) CO., LTD., priority 2021, published 2024).

Target: PARP-1 enzyme (Homo sapiens, UniProt P09874)
Test: In vitro inhibition of activity of poly (ADP-ribose) polymerase [PARP-1 enzyme], histone-coated plate chemiluminescence
Assay type: biochemical
Details: class symbols; read-out: Inhibitory activity against PARP-1 (IC50)
Method: Example 69. Experiment on In Vitro Inhibition of Activity of Poly (ADP-Ribose) Polymerase [PARP-1 Enzyme] with Compounds of the Present Invention
The histones were coated onto 384-well plates at 4° C. overnight, rinsed three times with a PBST buffer, and blocked at room temperature for 1 h. After 1 h, the histones were rinsed three more times with PBST, DMSO or a serially diluted compound, and a mixture containing PARP-1 enzymes and DNA was added, and the resulting mixture was incubated at 25° C. for 10 min. After 10 min NAD^+ was added to start the reaction. After reacting at room temperature for 60 min, the reaction solution was rinsed three times with PBST, and the level of poly/mono-ADP ribose on the histones was detected by the addition of a poly/mono-ADP ribose antibody conjugated with horseradish peroxidase ([…]). After incubation at room temperature for 1 h, HRP substrates ECL A and B were added, and Envision quantified chemiluminescence. The inhibition percentages and IC50 of the compounds were calculated compared to the control group DMSO.

Sequence of PARP-1 enzyme (P09874 whole entry): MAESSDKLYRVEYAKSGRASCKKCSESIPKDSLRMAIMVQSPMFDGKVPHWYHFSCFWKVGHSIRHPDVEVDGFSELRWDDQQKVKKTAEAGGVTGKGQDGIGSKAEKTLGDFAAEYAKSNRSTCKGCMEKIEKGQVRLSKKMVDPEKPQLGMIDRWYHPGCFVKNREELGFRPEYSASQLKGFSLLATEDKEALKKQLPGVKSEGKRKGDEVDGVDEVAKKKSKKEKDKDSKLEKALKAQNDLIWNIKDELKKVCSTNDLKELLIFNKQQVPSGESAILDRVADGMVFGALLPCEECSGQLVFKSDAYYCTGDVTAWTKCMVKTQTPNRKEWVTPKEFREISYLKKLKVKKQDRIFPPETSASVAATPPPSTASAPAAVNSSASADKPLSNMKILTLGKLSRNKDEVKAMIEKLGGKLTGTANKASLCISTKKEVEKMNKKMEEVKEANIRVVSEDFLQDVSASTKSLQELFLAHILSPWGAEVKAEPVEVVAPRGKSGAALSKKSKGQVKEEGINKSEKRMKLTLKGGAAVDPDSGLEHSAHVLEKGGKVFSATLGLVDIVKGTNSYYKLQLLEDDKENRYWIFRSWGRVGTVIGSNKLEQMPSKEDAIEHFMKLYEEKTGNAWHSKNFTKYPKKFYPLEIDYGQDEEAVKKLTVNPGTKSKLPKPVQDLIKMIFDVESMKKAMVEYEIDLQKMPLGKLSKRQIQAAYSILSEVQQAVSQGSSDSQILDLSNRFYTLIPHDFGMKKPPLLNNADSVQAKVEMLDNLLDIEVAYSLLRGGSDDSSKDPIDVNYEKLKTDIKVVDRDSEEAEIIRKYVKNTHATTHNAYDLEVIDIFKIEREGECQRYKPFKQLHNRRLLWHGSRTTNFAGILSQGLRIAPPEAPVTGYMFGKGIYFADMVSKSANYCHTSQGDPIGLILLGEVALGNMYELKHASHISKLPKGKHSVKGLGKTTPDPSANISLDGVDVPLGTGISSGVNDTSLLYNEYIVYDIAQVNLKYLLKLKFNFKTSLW

IC50 [nM] | SMILES
≤ 10 | CCc1cc2ncc(CN3CCN(c4cnc(C(=O)NC)nc4)CC3)cc2[nH]c1=O [Compound 2]
≤ 10 | CCc1cc2ncc(C(C)N3CCN(c4ccc(C(=O)NC)nc4)CC3)cc2[nH]c1=O (stereo not drawn) [Compound 3]
≤ 10 | CCc1nc2ccc(CN3CCN(c4ccc(C(=O)NC)nc4)CC3)nc2[nH]c1=O [Compound 4]
> 50 | CCc1cc2ncc(CN3CCN(c4ccc(C(=O)NC5CCC5)nc4)CC3)cc2[nH]c1=O [Compound 6]
10 to 50 | CCc1cc2ncc(CN3CCN(c4ccc(C(=O)NC5CC5)nc4F)CC3)cc2[nH]c1=O [Compound 7]
10 to 50 | CCc1cc2ncc(CN3CCN(c4ccc(C(=O)NC5CC5)nc4C)CC3)cc2[nH]c1=O [Compound 8]
10 to 50 | CCc1cc2ncc(CN3CCN(c4ccc(C(=O)NC5CC5)nc4C(F)F)CC3)cc2[nH]c1=O [Compound 9]
10 to 50 | CCc1cc2ncc(C(C)N3CCN(c4ccc(C(=O)NC5CC5)nc4)CC3)cc2[nH]c1=O (stereo not drawn) [Compound 10]
≤ 10 | CCc1cc2ncc(CN3CCN(c4ccc(C(=O)NC5CC5F)nc4)CC3)cc2[nH]c1=O (stereo not drawn) [Compound 11]
≤ 10 | CCc1cc2ncc(CN3CCN(c4ccc(C(=O)NC5CC(F)C5)nc4)CC3)cc2[nH]c1=O (stereo not drawn) [Compound 12]
≤ 10 | CCc1cc2ncc(CN3CCN(c4ccc(C(=O)NC5CC(F)(F)C5)nc4)CC3)cc2[nH]c1=O [Compound 13]
≤ 10 | CCc1nc2ccc(CN3CCN(c4ccc(C(=O)NC5CC5)nc4)CC3)cc2[nH]c1=O [Compound 14]
≤ 10 | CCc1nc2ccc(CN3CCN(c4ccc(C(=O)NC5CCC5)nc4)CC3)cc2[nH]c1=O [Compound 15]
≤ 10 | O=C(NC1CC1)c1ccc(N2CCN(Cc3ccc4nc(CCF)c(=O)[nH]c4c3)CC2)cn1 [Compound 16]
≤ 10 | O=C(NC1CC1)c1ccc(N2CCN(Cc3ccc4nc(CC(F)F)c(=O)[nH]c4c3)CC2)cn1 [Compound 17]
≤ 10 | CCc1nc2ccc(CN3CCN(c4ccc(C(=O)NC5CC5)nc4F)CC3)cc2[nH]c1=O [Compound 18]
≤ 10 | CCc1nc2ccc(C(C)N3CCN(c4ccc(C(=O)NC5CC5)nc4)CC3)cc2[nH]c1=O (stereo not drawn) [Compound 19]
≤ 10 | CCc1nc2ccc(CN3CCN(c4ccc(C(=O)NC5CC(F)C5)nc4)CC3)cc2[nH]c1=O (stereo not drawn) [Compound 21]
≤ 10 | CCc1nc2ccc(CN3CCN(c4ccc(C(=O)NC5CC(F)(F)C5)nc4)CC3)cc2[nH]c1=O [Compound 22]
≤ 10 | CCc1nc(C(=O)NC2CC2)ccc1N1CCN(Cc2ccc3nc(CC)c(=O)[nH]c3c2)CC1 [Compound 23]
≤ 10 | CCc1nc2ccc(CN3CCN(c4ccc(C(=O)NC5CC5)nc4C(F)F)CC3)cc2[nH]c1=O [Compound 24]
≤ 10 | CCc1nc2ccc(CN3CCN(c4ccc(C(=O)NC5CC5)nc4C)CC3)cc2[nH]c1=O [Compound 25]

IC50 [nM] | SMILES
≤ 10 | CCc1nc2ncc(CN3CCN(c4ccc(C(=O)NC5CC5)nc4)CC3)cc2[nH]c1=O [Compound 26]
10 to 50 | CCc1nc2ncc(CN3CCN(c4ccc(C(=O)NC5CC5)nc4F)CC3)cc2[nH]c1=O [Compound 27]
10 to 50 | CCc1nc2ncc(CN3CCN(c4ccc(C(=O)NC5CC5)nc4C(F)F)CC3)cc2[nH]c1=O [Compound 28]
10 to 50 | CCc1cc2ncc(CN3CCN(c4cnc(C(=O)NC)cn4)CC3)cc2[nH]c1=O [Compound 29]
10 to 50 | CCc1cc2ncc(CN3CCN(c4ccc(C(=O)NC)nn4)CC3)cc2[nH]c1=O [Compound 30]
10 to 50 | CCc1cc2ncc(CN3CCN(c4cnc(C(=O)NC5CC5)cn4)CC3)cc2[nH]c1=O [Compound 31]
10 to 50 | CCc1cc2ncc(CN3CCN(c4cnc(C(=O)NC5CC5)nc4)CC3)cc2[nH]c1=O [Compound 32]
≤ 10 | CCc1cc2ncc(CN3CCN(c4ccc(C(=O)NC5CC5)nn4)CC3)cc2[nH]c1=O [Compound 33]
≤ 10 | CCc1cc2ncc(CN3CCN(c4cnc(C(=O)NC5CC5)nc4C(F)F)CC3)cc2[nH]c1=O [Compound 34]
≤ 10 | CCc1cc2ncc(C(C)N3CCN(c4cnc(C(=O)NC5CC5)nc4)CC3)cc2[nH]c1=O (stereo not drawn) [Compound 35]
≤ 10 | CCc1cc2ncc(CN3CCN(c4cnc(C(=O)NC5CC5)nc4F)CC3)cc2[nH]c1=O [Compound 36]
10 to 50 | CCc1cc2ncc(CN3CCN(c4ccc(C(=O)NC5CC5F)nn4)CC3)cc2[nH]c1=O (stereo not drawn) [Compound 37]
10 to 50 | CCc1cc2ncc(CN3CCN(c4cnc(C(=O)NC5CC(F)C5)cn4)CC3)cc2[nH]c1=O (stereo not drawn) [Compound 38]
10 to 50 | CCc1cc2ncc(CN3CCN(c4cnc(C(=O)NC5CC(F)(F)C5)nc4)CC3)cc2[nH]c1=O [Compound 39]
10 to 50 | CCc1nc(C(=O)NC)ccc1N1CCN(C(C)c2cnc3cc(CC)c(=O)[nH]c3c2)CC1 (stereo not drawn) [Compound 40]
10 to 50 | CCc1cc2ncc(C(C)N3CCN(c4ccc(C(=O)NC)nc4F)CC3)cc2[nH]c1=O (stereo not drawn) [Compound 41]
10 to 50 | CCc1cc2ncc(C(C)N3CCN(c4ccc(C(=O)NC5CC5)nc4)CC3)cc2[nH]c1=O (stereo not drawn) [Compound 42]
≤ 10 | CCc1cc2ncc(C(C)N3CCN(c4ccc(C(=O)NC)nc4C(F)F)CC3)cc2[nH]c1=O (stereo not drawn) [Compound 43]
≤ 10 | CCc1cc2ncc(CN3CCN(c4ccc(C(=O)NC)nc4)CC3)nc2[nH]c1=O [Compound 44]
≤ 10 | CCc1cc2ccc(CN3CCN(c4ccc(C(=O)NC)nc4)CC3)nc2[nH]c1=O [Compound 45]
≤ 10 | CCc1nc2ccc(CN3CCN(c4ccc(C(=O)NC5CC5)nc4)CC3)nc2[nH]c1=O [Compound 46]
≤ 10 | CCc1nc2ccc(CN3CCN(c4ccc(C(=O)NC)nc4C)CC3)nc2[nH]c1=O [Compound 47]

IC50 [nM] | SMILES
≤ 10 | CCc1nc2ccc(CN3CCN(c4ccc(C(=O)NC)nc4F)CC3)nc2[nH]c1=O [Compound 48]
≤ 10 | CCc1cc2ncc(CN3CCN(c4ccc(C(=O)NC5CC5)nc4)CC3)nc2[nH]c1=O [Compound 49]
≤ 10 | CCc1cc2ncc(CN3CCN(c4ccc(C(=O)NC)nc4C(F)F)CC3)nc2[nH]c1=O [Compound 50]
10 to 50 | CCc1cc2ncc(CN3CCN(c4ccc(C(=O)NC)nc4F)CC3)nc2[nH]c1=O [Compound 51]
10 to 50 | CCc1cc2ccc(CN3CCN(c4ccc(C(=O)NC5CC5)nc4)CC3)nc2[nH]c1=O [Compound 52]
10 to 50 | CCc1cc2ccc(CN3CCN(c4ccc(C(=O)NC)nc4C(F)F)CC3)nc2[nH]c1=O [Compound 53]
≤ 10 | CCc1cc2ccc(CN3CCN(c4ccc(C(=O)NC)nc4F)CC3)nc2[nH]c1=O [Compound 54]
10 to 50 | CCC1Oc2ncc(CN3CCN(c4ccc(C(=O)NC5CC5)nc4)CC3)cc2NC1=O (stereo not drawn) [Compound 55]
≤ 10 | CCC1Oc2ncc(CN3CCN(c4ccc(C(=O)NC)nc4F)CC3)cc2NC1=O (stereo not drawn) [Compound 56]
≤ 10 | CCC1Nc2ncc(CN3CCN(c4ccc(C(=O)NC)nc4)CC3)cc2NC1=O (stereo not drawn) [Compound 57]
≤ 10 | CCC1C(=O)Nc2cc(CN3CCN(c4ccc(C(=O)NC)nc4)CC3)cnc2N1C (stereo not drawn) [Compound 58]
10 to 50 | CCC1C(=O)Nc2cc(CN3CCN(c4ccc(C(=O)NC5CC5)nc4)CC3)cnc2N1C (stereo not drawn) [Compound 59]
10 to 50 | CCC1Cc2ncc(CN3CCN(c4ccc(C(=O)NC5CC5)nc4)CC3)cc2NC1=O (stereo not drawn) [Compound 60]
≤ 10 | CCC1C(=O)Nc2cc(CN3CCN(c4ccc(C(=O)NC)nc4F)CC3)cnc2C1(C)C (stereo not drawn) [Compound 61]
10 to 50 | O=C(NC1CC1)c1ccc(N2CCN(Cc3cnc4cc(C5CC5)c(=O)[nH]c4c3)CC2)cn1 [Compound 62]
≤ 10 | O=C(NC1CC1)c1ccc(N2CCN(Cc3ccc4nc(C5CC5)c(=O)[nH]c4c3)CC2)cn1 [Compound 63]
≤ 10 | O=C(NC1CC1)c1ccc(N2CCN(Cc3cnc4nc(C5CC5)c(=O)[nH]c4c3)CC2)cn1 [Compound 64]
10 to 50 | CNC(=O)c1cnc(N2CCN(Cc3cnc4cc(C5CC5)c(=O)[nH]c4c3)CC2)cn1 [Compound 65]
10 to 50 | CNC(=O)c1ncc(N2CCN(Cc3cnc4cc(C5CC5)c(=O)[nH]c4c3)CC2)cn1 [Compound 66]
≤ 10 | CNC(=O)c1ccc(N2CCN(Cc3cnc4cc(C5CC5)c(=O)[nH]c4c3)CC2)nn1 [Compound 67]
≤ 10 | CNC(=O)c1ccc(N2CCN(C(C)c3cnc4cc(C5CC5)c(=O)[nH]c4c3)CC2)cn1 (stereo not drawn) [Compound 68]

Same assay, conditions: numeric values; read-out: Inhibitory activity against PARP-1 (IC50)

IC50 [nM] | SMILES
1.7 | CCC1Oc2ncc(CN3CCN(c4ccc(C(=O)NC)nc4)CC3)cc2NC1=O (stereo not drawn) [Compound 5]
